The values below come from PubChem BioAssay (NCI).

Structures are written as SMILES. Values joined by “and” are separate entries in the source; they are usually repeats but may differ in a detail not shown here. Equal entries are not always repeated.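 A five-concentration, 48-hour dose response in 96-well plates underlies each endpoint, interpolated linearly between surrounding concentrations. GI50 marks 50% less growth. TGI: total growth inhibition.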

Among the test systems are A498 renal; COLO 205 colon; HS 578T breast; HT29 colon; IGROV1 ovarian; NCI-H226 lung; RXF 393 renal; SF-268 CNS; SR leukemia; UO-31 renal.
What all share (test): inhibition of tumour cell growth, NCI panel, 48 h

On to `CC(=O)c1cc2c(cc1Nc1c3ccccc3nc3occ(Cl)c13)OCO2`, for which the GI50 was 0.105 µM in the experiment with A498 renal; 0.391 µM in the experiment with COLO 205 colon; 0.109 µM in the experiment on HS 578T breast; 0.439 µM in the experiment on HT29 colon; 0.185 µM in the experiment with IGROV1 ovarian; 3.42 µM in the experiment on NCI-H226 lung. The GI50 in the experiment on RXF 393 renal is 0.193 µM; with SF-268 CNS it was 0.697 µM; with SR leukemia, 0.12 µM; in the experiment on UO-31 renal, 1.09 µM. The TGI in the experiment on A498 renal was 0.373 µM; with COLO 205 colon, over 37.9 µM; in the experiment with HS 578T breast it was over 69.6 µM; in the experiment on HT29 colon it was over 100 µM; in the experiment with IGROV1 ovarian it was over 100 µM; in the experiment with RXF 393 renal, 0.523 µM. Further, the TGI was over 100 µM with SF-268 CNS, 1.06 µM in the experiment with SR leukemia and over 100 µM in the experiment on UO-31 renal.
Consider `O=C(Nc1ccc(Cl)cc1F)c1cc(I)ccc1O`, for which the GI50 with A498 renal is 0.269 µM; with COLO 205 colon, 4.52 µM; in the experiment with HS 578T breast it was 1.14 µM; with HT29 colon, 3.57 µM; in the experiment with IGROV1 ovarian, 1.51 µM; in the experiment with NCI-H226 lung, 1.94 µM. In addition, the GI50 with RXF 393 renal was 1.57 µM; in the experiment with SF-268 CNS, 1.67 µM; in the experiment on SR leukemia, 1.5 µM; in the experiment with UO-31 renal it was 0.385 µM. Besides, the TGI with A498 renal was 0.846 µM; in the experiment with COLO 205 colon, 17.5 µM; with HS 578T breast it was 7.29 µM; in the experiment with HT29 colon, over 100 µM; with IGROV1 ovarian, 50.4 µM; in the experiment on NCI-H226 lung, 7.14 µM. For the same compound, the TGI in the experiment with RXF 393 renal was 5.2 µM; in the experiment with SF-268 CNS, 15.1 µM; in the experiment on SR leukemia, over 100 µM; in the experiment on UO-31 renal it was 3.18 µM.
Consider `CCN1C(=O)NC(=O)C(C)(N2C(=O)c3c(F)c(F)c(F)c(F)c3C2=O)C1=O` (centres undefined), for which the GI50 with A498 renal was 17.7 µM; in the experiment on COLO 205 colon, 2.13 µM; in the experiment on HS 578T breast, 3.95 µM; with HT29 colon, 2.4 µM; with IGROV1 ovarian, 1.9 µM; with NCI-H226 lung, 9.58 µM. The GI50 with RXF 393 renal is 1.99 µM; in the experiment with SF-268 CNS it was 2.6 µM; in the experiment with SR leukemia, 0.444 µM; in the experiment on UO-31 renal, 2.39 µM. Moreover, the TGI in the experiment on A498 renal was 32.9 µM; in the experiment with COLO 205 colon, 4.47 µM; with HS 578T breast it was 25.1 µM; with HT29 colon it was 8.58 µM; in the experiment with IGROV1 ovarian, 4.92 µM; in the experiment on NCI-H226 lung, 36.7 µM. Also, the TGI came out at 4.43 µM in the experiment with RXF 393 renal, 7.43 µM in the experiment with SF-268 CNS, 2.22 µM with SR leukemia and 6.98 µM in the experiment on UO-31 renal.
`O=C(CN1CCN(c2ccc(Cl)cc2)CC1)N1CCN(c2nnc(-c3ccc(Cl)cc3)c(-c3ccc(Cl)cc3)n2)CC1`: the GI50 was 43.1 µM with A498 renal; 55.3 µM in the experiment with COLO 205 colon; 24 µM in the experiment with HS 578T breast; 9.85 µM with HT29 colon; 35.1 µM with IGROV1 ovarian; 45.7 µM with NCI-H226 lung. Besides, the GI50 was 23.8 µM in the experiment on RXF 393 renal, 34 µM in the experiment with SF-268 CNS, 10.1 µM with SR leukemia and 20.3 µM with UO-31 renal. For the same compound, the TGI in the experiment on A498 renal, with COLO 205 colon, in the experiment with HS 578T breast, with HT29 colon, in the experiment on IGROV1 ovarian and with NCI-H226 lung was over 100 µM throughout. In addition, the TGI in the experiment with RXF 393 renal was 77.3 µM; with SF-268 CNS, over 100 µM; in the experiment on SR leukemia, 53.9 µM; with UO-31 renal it was over 100 µM.
On to `O=C([O][Hg][CH2]C1COC([CH2][Hg][O]C(=O)c2ccccc2)CO1)c1ccccc1` (centres undefined), for which the GI50 in the experiment on A498 renal was 18.8 µM; in the experiment with COLO 205 colon it was 1.98 µM and 1.07 µM; in the experiment with HS 578T breast it was 21.8 µM; with HT29 colon it was 15.7 µM and 1.7 µM; in the experiment with IGROV1 ovarian, 8.71 µM; in the experiment on NCI-H226 lung it was 20.2 µM and 6.31 µM. For the same compound, the GI50 in the experiment on RXF 393 renal was 8.88 µM and 1.45 µM; with SF-268 CNS, 17.9 µM and 3.51 µM; in the experiment with SR leukemia it was 2.83 µM and 1.65 µM; with UO-31 renal, 17.7 µM. Moreover, the TGI is 33.1 µM in the experiment on A498 renal; 4.25 µM and 5.21 µM with COLO 205 colon; 82.6 µM with HS 578T breast; 30.5 µM and 3.26 µM in the experiment on HT29 colon; 17.2 µM in the experiment on IGROV1 ovarian; 39.1 µM and 34 µM in the experiment with NCI-H226 lung. Moreover, the TGI was 22.8 µM and 2.76 µM in the experiment on RXF 393 renal; 34 µM and 15.5 µM with SF-268 CNS; over 22.6 µM with SR leukemia; 31.5 µM in the experiment with UO-31 renal.
Consider `CC/C=C\C/C=C\C[C@H](O)C/C=C1/C(=O)C=C[C@@H]1C/C=C\CCCC(=O)O`, for which the GI50 in the experiment on A498 renal was 16 µM; with COLO 205 colon, 3.78 µM; in the experiment on HS 578T breast, 28.4 µM; in the experiment on HT29 colon, 3.78 µM; with IGROV1 ovarian, 6.78 µM; in the experiment on NCI-H226 lung it was 2.57 µM. For the same compound, the GI50 in the experiment on RXF 393 renal was 2.94 µM; with SF-268 CNS it was 5.2 µM; with SR leukemia, 2.46 µM; in the experiment with UO-31 renal it was 5.99 µM. Also, the TGI with A498 renal is 31.1 µM; in the experiment with COLO 205 colon, 10.9 µM; with HS 578T breast it was over 100 µM; with HT29 colon it was 11.4 µM; with IGROV1 ovarian, 25.9 µM; in the experiment with NCI-H226 lung, 5.86 µM. For the same compound, the TGI came out at 8.71 µM in the experiment on RXF 393 renal, 34 µM in the experiment on SF-268 CNS, 16.7 µM with SR leukemia and 20.3 µM in the experiment with UO-31 renal.
